According to patent publication US20240350643A1, “PROTEIN DEGRADATION AGENT” (SUZHOU KINTOR PHARMACEUTICALS, INC., priority 2021, published 2024):
Where two headings read alike, the source gives them in different places.

Tests used:
c-Myc protein = target: T1, c-Myc protein (Homo sapiens, UniProt P01106); experiment: Ability of compounds to degrade c-Myc protein in HL60 cells (ELISA); type: cell-based; settings: HL-60, 1 μM compound, 24 h, read-out: HL60 cells Protein degradation rate (1 μM)
T1 construct: endogenous in cells; host or cells: HL60 cells
Method: I Activity test 1: Ability of compounds to degrade c-Myc protein in HL60 cells:
HL60 cells in the exponential growth phase were centrifuged, diluted with fresh culture mediums to 6×10^4 cells/100 μL and plated into a 96-well plate at 100 μL per well.
Preparation of test compounds: the compounds were weighed and diluted with DMSO to a 10 mM stock solution for later use. According to test requirements, drugs were diluted with cell culture mediums, with ten-fold dilutions starting from 10 μM, to achieve 3 concentration gradients: 10 μM, 1 μM and 100 NM; and finally, 1 μL of the drugs (DMSO content: 0.01%) were added to each well. For the blank control group, DMSO was also diluted with cell culture mediums, and finally, 1 μL of the control reagent (DMSO content: 0.01%) was added to each well.
3. Effect of drugs on c-Myc in cells as determined by ELISA
After 24 h of drug action, the culture mediums were removed, and the cells were washed once with ice-cold 1× PBS. PBS was removed, and 100 μL of ice-cold 1× Cell Lysis Buffer plus 1 mM phenylmethylsulfonyl fluoride (PMSF) was added to each well. The plate was incubated on ice for 20 min and centrifuged at 4000 RPM at 4° C. for 10 min for later use.
4. Reagent and antibody preparation in ELISA kit 1× wash buffer • 1). 16 mL of ELISA wash buffer concentrate (25×) was diluted with 384 mL of deionized water or distilled water, labeled as 1× Wash Buffer. • 2). The concentrate and 1× Wash Buffer were stored in the refrigerator. The diluted buffer was used within 14 days.
The cell extraction buffer contains 10 mM Tris (pH 7.4), 100 mM NaCl, 1 mM EDTA, 1 mM EGTA, 1 mM NaF, 20 mM Na4P2O7 2 mM Na3VO4. 1% Triton™ ×-100, 10% glycerol, 0.1% SDS and 0.5% deoxycholate. Immediately before use, PMSF (0.3 M stock solution in DMSO) was added to the buffer to a final concentration of 1 mM.
Standard curve configuration: The standard liquid was diluted using glass or plastic tubes. • 1). Huc-Myc (total) standard liquid (Invitrogen, KH02041) was reconstituted with a standard dilution to 1000 pg/mL. Refer to the standard vial label for instructions. The contents were gently swirled or mixed and then allowed to stand for 10 minutes to ensure complete reconstitution, labeled as 1,000 pg/mL human c-Myc. The standard liquid was used within 1 hour after reconstitution. • 2). 250 μL of standard dilution buffers were added to 7 test tubes respectively labeled 500, 250, 125, 62.5, 31.25, 15,63 and 0 pg/mL. • 3). 250 μL of the 1000 pg/ml standard stock solution was added to the first EP tube to a concentration of 500 pg/mL, vortexed and mixed evenly. 250 μL of the resulting mixture was further pipetted and added to the second EP tube to a concentration of 250 pg/mL. Serial dilutions were performed until the sixth EP tube with a concentration of 15.63 pg/mL. Dilution was not performed on the last EP tube. • 4). The remaining reconstituted standard liquid should be discarded, or aliquoted and frozen at −80° C. for further use. Standards can be frozen and thawed only once without losing immunoreactivity.
1× anti-rabbit IgG HRP solution: 1× anti-rabbit IgG HRP solution was prepared within 15 minutes of use. The anti-rabbit IgG HRP (100×) contained 50% viscous glycerol. To ensure accurate dilutions, the following operations were carried out: 1 For each 8-well test strip used in the test, 10 μl, of the anti-rabbit IgG -IRP (100×) solution was pipetted, wherein the pipette tip was wiped with clean absorbent paper to remove excess solutions, and then the solution was dispensed into a test tube containing 1 mL of HRP diluent and mixed thoroughly. 2. The unused anti-rabbit IgG HRP (100×) was placed in the refrigerator for storage.
50 μL of the standard liquid was added to the appropriate wells and not added to the blank control well. Except for the blank control well, 50 μL of Hu c-Myc (total) detection antibody solution was added to each well and mixed by tapping the side face of the plate. […]

HL60 cells = experiment: Anti-proliferation ability of compounds on HL60 cells (CTG); type: cell-based, human; settings: 3 days, CellTiter-Glo, read-out: HL60 cells Proliferation inhibitory activity
Method: II. Activity test 2: Anti-proliferation ability of compounds on HL60 cells: 1 Cell plating
HL60 cells in the logarithmic growth phase were counted and plated evenly in a 96-well transparent bottom white plate at 20000 cells per well and 100 μL per well.
A certain amount of the compounds was weighed and diluted with DMSO to a 10 mM stock solution. The culture mediums corresponding to the cells were taken, and the drugs were diluted to the concentration required by the test, shaken gently and mixed evenly. 50 μl of the gradient dilution of the diluted compound was added to each well of the plated cells, and 50 μL of 0.1% DMSO was added to the control group. The plate was shaken gently, mixed evenly and incubated in a cell culture incubator for 3 days.
• 3.1 The CellTiter-GLo™ (CTG) reagent was taken in advance from the −20° C. refrigerator and equilibrated to room temperature in the dark (white bottle+brown bottle, 1:1 mixing evenly into the brown bottle, for later use). • 3.2 The 96-well plate was taken out and inspected under a microscope for growth situation. • 3.3 The bottom of the 96-well plate was tagged with white paper, and then the plate was wrapped with tin foil paper, shaken at 37° C. at 300 r for 10 min and mixed evenly. • 3.4 50 ul of CTG detection reagent was added to each well, Luminescence signal was detected using a microplate reader, and the inhibition rate was calculated. IC50 values of the compounds were calculated by XLfit software to evaluate the proliferation inhibitory activity on HL60 cells.

T1 sequence (P01106 whole entry): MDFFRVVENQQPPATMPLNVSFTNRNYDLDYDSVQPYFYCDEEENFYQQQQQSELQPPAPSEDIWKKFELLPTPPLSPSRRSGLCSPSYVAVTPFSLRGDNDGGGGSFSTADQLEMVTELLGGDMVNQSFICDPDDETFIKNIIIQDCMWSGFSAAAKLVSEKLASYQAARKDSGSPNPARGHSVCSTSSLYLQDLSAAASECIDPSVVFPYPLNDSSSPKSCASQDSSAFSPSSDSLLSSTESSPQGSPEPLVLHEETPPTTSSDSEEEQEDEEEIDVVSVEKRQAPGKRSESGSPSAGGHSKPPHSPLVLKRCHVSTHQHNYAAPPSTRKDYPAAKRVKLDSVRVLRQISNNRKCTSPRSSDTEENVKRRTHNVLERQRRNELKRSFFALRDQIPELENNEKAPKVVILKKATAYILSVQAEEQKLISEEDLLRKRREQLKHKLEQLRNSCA

Structure (SMILES)	inhibition at 1 µM (c-Myc protein) [%]	IC50 (HL60 cells; Homo sapiens, HL-60, 72 h) [nM]	IC50 (HL60 cells) [nM]
O=C(Cc1cccc2ccc(F)cc12)NCc1ccc(CNC(=O)c2ccc3c(c2)C(=O)N(C2CCC(=O)NC2=O)C3=O)cc1 (centres unmarked) [A36]	30 to 60	13.4 ± 3.3	–
O=C(Cn1c2ccccc2c2cccnc21)NCCCCCCCCCc1ccc2c(c1)C(=O)N(C1CCC(=O)NC1=O)C2=O (centres unmarked) [A20]	60 to 90	490 ± 64.9	–
CC(C)(NC(=O)c1ccc2c(c1)C(=O)N(C1CCC(=O)NC1=O)C2=O)c1ccc(CNC(=O)Cn2c3ccccc3c3cccnc32)cc1 (centres unmarked) [A146]	60 to 90	14.7 ± 4	–
O=C(Cc1cccc2ccccc12)NCc1ccc(CNCc2ccc3c(c2)C(=O)N(C2CCC(=O)NC2=O)C3=O)c(F)c1 (centres unmarked) [A189]	60 to 90	5.6 ± 1	–
COc1cc(CNC(=O)c2ccc3c(c2)C(=O)N(C2CCC(=O)NC2=O)C3=O)ccc1CNC(=O)Cc1cccc2ccccc12 (centres unmarked) [A115]	60 to 90	8.6 ± 1.8	–
O=C1CCC(N2C(=O)c3ccc(C(=O)NC[C@H]4CC[C@H](CNC(=O)Nc5cccc6ncccc56)CC4)cc3C2=O)C(=O)N1 (some centres unmarked) [A50]	10 to 30	10400 ± 235	–
O=C(Cc1cccc2ccccc12)NCCCCCCCCCc1ccc2c(c1)C(=O)N(C1CCC(=O)NC1=O)C2=O (centres unmarked) [A19]	60 to 90	585 ± 79.8	–
COc1cc(CN(C)CCc2cccc3ccccc23)ccc1CNC(=O)c1ccc2c(c1)C(=O)N(C1CCC(=O)NC1=O)C2=O (centres unmarked) [A113]	60 to 90	4.4 ± 3.2	–
O=C(CN1CCCc2ccccc21)NCc1ccc(CNC(=O)c2ccc3c(c2)CN(C2CCC(=O)NC2=O)C3=O)cc1 (centres unmarked) [A200]	60 to 90	2.5 ± 1	–
O=C(Cc1cccc2ccccc12)NCc1ccc(COCc2ccc3c(c2)C(=O)N(C2CCC(=O)NC2=O)C3=O)cc1 (centres unmarked) [A191]	60 to 90	16.9 ± 2.2	–
O=C(Cc1cccc2ccccc12)NCCc1ccc(CNC(=O)c2ccc3c(c2)C(=O)N(C2CCC(=O)NC2=O)C3=O)cc1 (centres unmarked) [A40]	60 to 90	306 ± 73.8	–
O=C(Cc1cccc2ccccc12)NCCc1ccc(NC(=O)c2ccc3c(c2)C(=O)N(C2CCC(=O)NC2=O)C3=O)cc1 (centres unmarked) [A39]	60 to 90	979 ± 80.2	–
O=C(Cn1c2ccccc2c2cccnc21)NCc1ccc(CNC(=O)c2ccc3c(c2)CN(C2CCC(=O)NC2=O)C3=O)c(OC(F)(F)F)c1 (centres unmarked) [A207]	–	0.2	–
O=C(Cn1c2ccccc2c2ccncc21)NCCCCCCNC(=O)c1ccc2c(c1)C(=O)N(C1CCC(=O)NC1=O)C2=O (centres unmarked) [A3]	30 to 60	–	–
O=C(Cn1c2ccccc2c2cccnc21)NCc1ccc(CNC(=O)c2ccc3c(c2)CN(C2CCC(=O)NC2=O)C3=O)c(C(F)(F)F)c1 (centres unmarked) [A209]	–	–	0.9
N#Cc1cc(CNC(=O)Cn2c3ccccc3c3cccnc32)ccc1CC(=O)Nc1ccc2c(c1)CN(C1CCC(=O)NC1=O)C2=O (centres unmarked) [A211]	–	13.3 ± 1	–
O=C(CN1CCCc2cccnc21)NCc1ccc(CNC(=O)c2ccc3c(c2)CN(C2CCC(=O)NC2=O)C3=O)cc1 (centres unmarked) [A202]	–	6.4 ± 2.7	–
O=C1CCC(N2Cc3cc(C(=O)NCc4ccc(C5(NC(=O)Cn6c7ccccc7c7cccnc76)CC5)cc4)ccc3C2=O)C(=O)N1 (centres unmarked) [A212]	–	1.5 ± 0.1	–
CN(CCn1c2ccccc2c2cccnc21)Cc1ccc(CC(=O)Nc2ccc3c(c2)CN(C2CCC(=O)NC2=O)C3=O)cc1 (centres unmarked) [A206]	–	0.5 ± 0.2	–
O=C1CCC(N2Cc3cc(C(=O)NC[C@H]4CC[C@H](NC(=O)NCc5cccc6ccccc56)CC4)ccc3C2=O)C(=O)N1 (some centres unmarked) [A198]	–	17.8 ± 1.9	–
N#Cc1cc(CNC(=O)Cn2c3ccccc3c3cccnc32)ccc1CNC(=O)c1ccc2c(c1)CN(C1CCC(=O)NC1=O)C2=O (centres unmarked) [A210]	–	3.6 ± 1.8	–

Second part, the compound after the results:

inhibition at 1 µM (c-Myc protein) [%]	IC50 (HL60 cells; Homo sapiens, HL-60, 72 h) [nM]	IC50 (HL60 cells) [nM]	Structure (SMILES)
–	5.4 ± 1.9	–	O=C(Cn1c2ccccc2c2cccnc21)NCc1ccc(C2(NC(=O)c3ccc4c(c3)CN(C3CCC(=O)NC3=O)C4=O)CC2)cc1 (centres unmarked) [A213]
–	6.3 ± 1.2	–	O=C(Cn1c2ccccc2c2cccc(CO)c21)NCc1ccc(CNC(=O)c2ccc3c(c2)C(=O)N(C2CCC(=O)NC2=O)C3=O)cc1 (centres unmarked) [A236]
–	< 3.04	–	N#Cc1cccc2c3ccccc3n(CC(=O)NCc3ccc(CNC(=O)c4ccc5c(c4)CN(C4CCC(=O)NC4=O)C5=O)cc3)c12 (centres unmarked) [A229]
–	< 3.04	–	O=C1CCC(N2Cc3cc(C(=O)NCc4ccc(CNCCc5cccc6ccccc56)cc4)ccc3C2=O)C(=O)N1 (centres unmarked) [A231]
–	0.54	–	O=C1CCC(N2Cc3cc(C(=O)NCc4ccc(CN(CCc5cccc6ccccc56)C(=O)CO)cc4)ccc3C2=O)C(=O)N1 (centres unmarked) [A232]
–	5.2 ± 1.4	–	O=C1CCC(N2Cc3cc(C(=O)NCc4ccc(C5(NC(=O)Cn6c7ccccc7c7cccnc76)CC5)cn4)ccc3C2=O)C(=O)N1 (centres unmarked) [A214]
–	0.6 ± 0.2	–	O=C(Cn1c2ccccc2c2cccnc21)NCc1ccc(CNC(=O)c2cc3c(cc2F)C(=O)N(C2CCC(=O)NC2=O)C3)cc1 (centres unmarked) [A222]
–	7.8 ± 2	–	O=C(Cn1c2ccccc2c2cccnc21)NCc1ccc(CC(=O)Nc2cc3c(cc2F)C(=O)N(C2CCC(=O)NC2=O)C3)c(C(F)(F)F)c1 (centres unmarked) [A219]
–	< 3.04	–	O=C1CCC(N2Cc3cc(C(=O)NCc4ccc(CN(CCO)CCc5ccc(Cl)c(Cl)c5)cc4)ccc3C2=O)C(=O)N1 (centres unmarked) [A233]
–	1	–	CC(C)(C)C(=O)OCN1C(=O)CCC(N2Cc3cc(C(=O)NCc4ccc(CNC(=O)Cn5c6ccccc6c6cccnc65)cc4)ccc3C2=O)C1=O (centres unmarked) [A226]
–	3.5 ± 1.1	–	O=C(Cn1c2ccccc2c2cccnc21)NCc1ccc(C2(NC(=O)c3ccc4c(c3)CN(C3CCC(=O)NC3=O)C4=O)CC2)cc1F (centres unmarked) [A216]
–	3.3 ± 0.8	–	O=C(Cn1c2ccccc2c2cccnc21)NCc1ccc(CC(=O)Nc2ccc3c(c2F)CN(C2CCC(=O)NC2=O)C3=O)c(C(F)(F)F)c1 (centres unmarked) [A218]
–	11.8 ± 1.2	–	O=C1CCC(N2Cc3cc(C(=O)NCc4ccc(CN(CCc5cccc6ccccc56)CCc5cccc6ccccc56)cc4)ccc3C2=O)C(=O)N1 (centres unmarked) [A230]
–	0.7 ± 0.4	–	O=C(Cn1c2ccccc2c2cccnc21)NCc1ccc(CNC(=O)c2ccc3c(c2F)CN(C2CCC(=O)NC2=O)C3=O)cc1 (centres unmarked) [A223]
–	0.6	–	Cc1cc(CNC(=O)Cn2c3ccccc3c3cccnc32)ccc1CNC(=O)c1ccc2c(c1)CN(C1CCC(=O)NC1=O)C2=O (centres unmarked) [A217]
–	186 ± 67	–	O=C(Cn1c2ccccc2c2cccnc21)NCc1ccc(C2(NC(=O)c3ccc4c(c3)CN(C3CCC(=O)NC3=O)C4=O)CC2)cn1 (centres unmarked) [A215]
–	0.71 ± 0.04	–	O=C1CCC(N2Cc3cc(C(=O)NCc4ccc(CN(CCO)CCc5cccc6ccccc56)cc4)ccc3C2=O)C(=O)N1 (centres unmarked) [A234]
